Data as given in patent US12715844B2, “Compound, preparation method therefor, composition, kit and use thereof” (SIGNDO BIOTECHNOLOGY (SUZHOU) CO., LTD, priority 2023, dated 2026).

What was measured:
PSMA receptor = biological target: T1, PSMA receptor (Homo sapiens, UniProt Q04609); test: Receptor binding detected by flow cytometry in vitro (competitive binding with DUPA-FITC); settings: 22RV1 (PSMA+) cells, competition with 100 nmol/L DUPA-FITC
T1 construct: endogenous in cells; host or cells: 22RV1 (PSMA+); PC3 (PSMA−) as negative control
Source text: 1. Receptor Binding was Detected by Flow Cytometry In Vitro:
Prostate-specific membrane antigen (PSMA) is overexpressed on prostate cancer cells. Both DUPA-FITC and DGPR1008 are capable of targeting the PSMA receptor in prostate cancer cells, with the difference being that DUPA-FITC is connected to a visible light dye (Ex=495 nm, Em=520 nm), whereas DGPR1008 is connected to a near-infrared dye (Ex=776 nm, Em=793 nm). Since the majority types of lasers equipped in flow cytometers operate within the visible light spectrum, the binding affinity of DGPR1008 to the receptor can not be directly measured. Therefore, the competitive binding of DGPR1008 with DUPA-FITC to PSMA is employed to indirectly assess the binding affinity of the test compound to the receptor.
DGPR1008, DUPA-FITC, 22RV1 (PSMA+), PC3 (PSMA−), 1640 culture medium, FBS, double antibiotics, trypsin, centrifuge, 4° C. constant temperature incubator, flow cytometer.
Drug preparation: 100 nmol/L DUPA-FITC was prepared using culture medium. The test compound was diluted to nine concentrations (0.00098 μM, 0.002 μM, 0.008 μM, 0.01 μM, 0.03 μM, 0.05 μM, 0.09 μM, 0.1 μM, and 0.125 μM) using culture medium containing 100 nmol/L DUPA-FITC, with three replicate wells for each concentration.
Cell culture: The cells were seeded in T75 culture flasks. After 48 h, cells in the logarithmic growth phase were taken, digested with trypsin for 1-2 min, and the digestion was then terminated by adding fresh culture medium. After cell counting, the cells were transferred into a 96-well plate (1×10^5 cells/well), totaling 27 wells. The culture medium was discarded by centrifugation (800 rpm, 5 min), and the cells were washed twice with PBS and then centrifuged to collect the cell pellet. The prepared culture media with 9 concentrations were added to the cell-containing wells, with three replicates for each concentration. The cells were incubated at 4° C. in the dark for 30 min, and then the culture medium in the wells was discarded. Cells were washed by adding 300 μL of fresh culture medium (twice) and saline (once) to each well, followed by resuspension in 300 μL of saline for flow cytometry detection.

22RV1 (PSMA+) [1] = test: Drug efficacy validation by in vivo live imaging, three dose groups; set-up: species or system mice
Source text: (§1) “V” denotes the volume-to-mass ratio. […] Mice refer to BALB/c nude mice, 6-8 weeks old, weighing 18-20 g; rats refer to SD rats: 8 weeks old, approximately 250 g.
2. Drug Efficacy Validation Experiment Using In Vivo Live Imaging
Prostate-specific membrane antigen (PSMA) is overexpressed on prostate cancer cells. The test compound is a PSMA-targeting molecule conjugated with a near-infrared region I dye. The test compound can bind to PSMA and “illuminate” cancer cells upon excitation by a near-infrared light source. In this experiment, the in vivo tissue distribution of the test compound in mice is detected using in vivo live imaging.
DGPR1008, 22RV1 (PSMA+), PC3 (PSMA−), 1640 culture medium, FBS, double antibodies, trypsin, Matrigel (BD), vernier caliper, centrifuge, IVIS live imager.
Matrigel was thawed on ice in advance, and the culture medium was pre-cooled on ice. After centrifugation, the cells were resuspended in the pre-cooled culture medium, followed by the addition of HC Matrigel gel in a volume equal to the culture medium. The centrifuge tube containing the cells was placed on ice and transferred to the animal facility. The cells were thoroughly dispersed before inoculation. The right dorsal shoulder area of the mice was disinfected with an alcohol cotton ball, and a single intravenous administration was performed with an inoculation volume of 200 μL per mouse. All operations were performed on ice. When the tumor volume reached 300-400 mm^3, the mice were grouped for administration. Nine mice with well-grown and regularly shaped tumors were selected into the group. The nine mice were randomly divided into three groups: G1 (25 nmol/mouse), G2 (50 nmol/mouse), and G3 (100 nmol/mouse), with three mice in each group. The scanning time: 1, 2, 4, 8, 24, and 48 h.

22RV1 (PSMA+) [2] = test: In vivo live imaging comparison with the existing product OTL78; set-up: species or system mice
Source text: as §1
3. Comparison with the Existing Product OTL78
(§2) The Prostate-specific membrane antigen (PSMA) is overexpressed on prostate cancer cells. The test compound is a PSMA-targeting molecule conjugated with a near-infrared region I dye. The test compound can bind to PSMA and “illuminate” cancer cells upon excitation by a near-infrared light source. In this experiment, the in vivo and ex vivo tissue distribution of the test compound in mice is detected using in vivo live imaging.
DGPR1008, 22RV1 (PSMA+), BALB/c nude mouse, 1640 culture medium, FBS, double antibodies, trypsin, Matrigel (BD), vernier caliper, centrifuge, IVIS live imager.
(§3) Matrigel was thawed on ice in advance, and the culture medium was pre-cooled on ice. After centrifugation, the cells were resuspended in the pre-cooled culture medium, followed by the addition of HC Matrigel gel in a volume equal to the culture medium. The centrifuge tube containing the cells was placed on ice and transferred to the animal facility. The cells were thoroughly dispersed before inoculation. The back of the neck was disinfected with an alcohol cotton ball, and a single intravenous administration was performed with an inoculation volume of 200 μL per mouse. All operations were performed on ice. When the tumor volume reached 300-400 mm^3, the mice were grouped for administration. Six mice with well-grown and regularly shaped tumors were selected into the group. The six mice were randomly divided into two groups: G1 (OTL78 10 nmol/mouse) and G2 (DGPR1008 10 nmol/mouse) with three mice in each group. The scanning time: 1, 2, 4, 8, 24, and 72 h.
(1) Results and Data of In Vivo Live Imaging of Drug Efficacy (Mice were Used as Experimental Subjects in this Part)

22RV1 (PSMA+) [3] = test: 2-hour ex vivo tissue distribution: fluorescence of tumor and in situ normal prostate; set-up: species or system mice; settings: relative to OTL78
Source text: as §2, §3
(2) Results of 2-Hour Ex Vivo Tissue Distribution: Fluorescence Ratio of Tumor to In Situ Normal Prostate: […]

[4] = Pharmacokinetic parameters in rat plasma; type: in vivo; settings: compared with OTL78
[5] = Acute toxicity experiment on rats; settings: three dose groups of high, medium and low doses

T1 sequence (Q04609 whole entry): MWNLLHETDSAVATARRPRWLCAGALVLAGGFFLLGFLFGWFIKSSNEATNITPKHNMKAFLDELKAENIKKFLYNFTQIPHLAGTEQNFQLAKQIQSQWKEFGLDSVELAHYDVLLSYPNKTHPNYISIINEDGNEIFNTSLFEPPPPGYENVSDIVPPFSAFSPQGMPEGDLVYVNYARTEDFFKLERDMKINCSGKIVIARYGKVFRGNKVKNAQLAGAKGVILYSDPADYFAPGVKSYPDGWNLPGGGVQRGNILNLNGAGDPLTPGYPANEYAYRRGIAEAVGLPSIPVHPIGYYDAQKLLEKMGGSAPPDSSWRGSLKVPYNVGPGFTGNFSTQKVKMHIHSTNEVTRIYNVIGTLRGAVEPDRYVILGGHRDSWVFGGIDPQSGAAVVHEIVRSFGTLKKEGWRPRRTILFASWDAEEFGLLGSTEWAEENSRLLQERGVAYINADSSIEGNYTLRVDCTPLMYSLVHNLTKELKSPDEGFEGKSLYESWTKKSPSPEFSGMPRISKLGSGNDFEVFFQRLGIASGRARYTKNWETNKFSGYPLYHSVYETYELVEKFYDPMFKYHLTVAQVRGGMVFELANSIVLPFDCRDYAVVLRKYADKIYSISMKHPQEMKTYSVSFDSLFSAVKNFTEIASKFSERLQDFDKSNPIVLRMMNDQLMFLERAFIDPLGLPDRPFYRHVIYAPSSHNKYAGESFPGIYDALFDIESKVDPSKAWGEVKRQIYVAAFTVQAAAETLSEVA

CC1(C)C(=CC=C2CCCC(C=CC3=[N+](CCCCS(=O)(=O)[O-])c4ccc(S(=O)(=O)[O-])cc4C3(C)C)=C2Oc2ccc(CC(NC(=O)CCOCCCOCCCCCOCCOCCNC(=O)CCC(NC(=O)NC(CCC(=O)[O-])C(=O)[O-])C(=O)[O-])C(=O)[O-])cc2)N(CCCCS(=O)(=O)[O-])c2ccc(S(=O)(=O)[O-])cc21.[Na+].[Na+].[Na+].[Na+].[Na+].[Na+].[Na+] (stereo not drawn) [Example 51]
binding affinity to PSMA receptor (PSMA receptor): good affinity | targeting properties (22RV1 (PSMA+) [1]; 22RV1 tumor mice, in vivo live imaging): good targeting properties | enrichment in the prostate cancer tumor site (22RV1 (PSMA+) [1]; high, medium and low doses (25, 50, 100 nmol/mouse), scans 1-48 h): enriched in the prostate cancer tumor site | TBR (tumor-to-background ratio), in words (22RV1 (PSMA+) [2]; from about 2 h to 72 h): good TBR | fluorescence value at the tumor site compared with OTL78 (22RV1 (PSMA+) [2]; mice, each time point): greater fluorescence values at the tumor site than OTL78 | TBR compared with OTL78 (22RV1 (PSMA+) [2]; relative to OTL78): higher TBR | discrimination capability (tumor vs normal prostate) compared with OTL78 (22RV1 (PSMA+) [3]): approximately 5 fold | clearance in rats in vivo, in words [4]: cleared more rapidly | toxic reactions in acute toxicity experiment [5]: no toxic reactions were observed
